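Cultured in 96-well plates, cells were exposed to test compound for 48 hours across five concentrations. Definition used: TGI = concentration required for complete inhibition of growth.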
Legend:
Experiment in all cases: NCI tumour cell line growth inhibition, 48 h
OVCAR-5 ovarian = test system: OVCAR-5 ovarian
MDA-MB-435 = test system: MDA-MB-435
UO-31 renal = test system: UO-31 renal
RXF 393 renal = test system: RXF 393 renal
MDA-MB-231 breast = test system: MDA-MB-231 breast
ACHN renal = test system: ACHN renal
PC-3 prostate = test system: PC-3 prostate
HOP-92 NSCLC = test system: HOP-92 NSCLC
LOX IMVI melanoma = test system: LOX IMVI melanoma
CCRF-CEM leukemia = test system: CCRF-CEM leukemia

| SMILES | TGI (OVCAR-5 ovarian) [µM] | TGI (MDA-MB-435) [µM] | TGI (UO-31 renal) [µM] | TGI (RXF 393 renal) [µM] | TGI (MDA-MB-231 breast) [µM] | TGI (ACHN renal) [µM] | TGI (PC-3 prostate) [µM] | TGI (HOP-92 NSCLC) [µM] | TGI (LOX IMVI melanoma) [µM] | TGI (CCRF-CEM leukemia) [µM] |
| --- | --- | --- | --- | --- | --- | --- | --- | --- | --- | --- |
| CCN(CC)Cc1cc(Nc2c3ccccc3nc3c2[nH]c2ccccc23)cc(CN(CC)CC)c1O | 9.21 | 2.04 | 4.62 | 1.25 | 2.62 | 3.48 | 2.75 | 3.86 |  |  |
| CCOP(=O)(C=C=C1CCC2[C@@H]3CCc4cc(OC)ccc4C3CC[C@]12C)OCC (stereo not given in full) | 31.4 | 25.5 |  | 14.8 |  | 21.9 | 15 | 22.5 | 24.8 |  |
| N#Cc1cnc(-n2[nH]c3c(c2=O)CCCC3)[nH]c1=O | > 100 | > 100 | > 100 | > 100 | > 100 | > 100 | > 100 | > 100 |  | > 100 |
| O=C1c2cccnc2S(=O)(=O)N1c1ccc(Oc2ccccc2)cc1 | > 100 | > 100 | > 100 | > 100 | > 100 | > 100 | > 100 | > 100 |  | > 100 |
| O=C(CC(CC(=O)Oc1c(Br)cc(Br)cc1C(=O)O)C(=O)Oc1c(Br)cc(Br)cc1C(=O)O)Oc1c(Br)cc(Br)cc1C(=O)O | > 100 |  | > 100 |  |  | > 100 |  | 49.8 | > 100 | > 100 |
| O=P1(Oc2ccccc2)N=P(c2ccccc2)(c2ccccc2)C=C(c2ccc(Cl)cc2)N1 (stereo not given) | 28.2 | 17.1 | 25.8 |  | 32.1 | 25.6 | 20.7 | 25.4 |  | 26.6 |
| Oc1cc(O)c2ccc(-c3ccc(O)c(O)c3)[o+]c2c1 | > 100 | > 100 | > 100 | > 100 |  | > 100 | > 100 | > 100 | > 100 | > 100 |
| CCOP(=O)(OCC)C(C)(C)N(C)/C(F)=N/C(F)(F)F | > 100 | > 100 | > 100 |  | > 100 | > 100 | > 100 | > 100 | > 100 | > 100 |
| Cc1ccc2c(=O)cc(Cc3cccs3)[nH]c2n1 | > 100 | > 100 | > 100 | > 100 | > 100 |  | > 100 |  | > 100 | > 100 |
| CC1=NN(C(=O)c2ccccc2O)C(=O)/C1=C/c1cccc(O)c1 | > 100 |  |  |  | > 100 | > 100 | > 100 | > 100 | > 80.5 | > 100 |
| Cc1ccc(/C=N/n2c(Cc3ccccc3)n[nH]c2=O)cc1 | > 100 |  | > 100 | > 100 | > 100 | > 100 | > 100 | 83.4 | > 100 | > 100 |
| Cc1c(C)c(C)c(CC2(C)CSC2)c(CC2(C)CSC2)c1C | > 100 |  | > 100 | > 100 | > 100 | > 100 | > 100 | > 100 | > 100 | > 100 |
| Cc1[nH]c(=O)nc2c1C(NCCCN(C)C)c1cc(Cl)ccc1N2 (stereo not given) |  |  | 26.4 | 27 |  | 30.2 |  | 23.4 | 24.5 | 34.8 |
| Nc1ccc2nc3c(nc2c1)C(=O)c1ccccc1-3 | > 100 | > 100 |  | > 100 | > 100 | > 100 | > 100 | > 100 |  | > 100 |
| CC(=O)OCC(C)C1=C(OC(C)=O)C(=O)C2(C)C/C=C(/C)CC/C=C(\C)CCC(OC(C)=O)C(C)CCC12 (stereo not given) | 25.4 | 38.2 | 31.2 |  | 27.7 | 39.3 | 30.2 | 20.3 | 35 | 40.9 |
| O=C(O)CSC(CC1(c2ccc(Cl)cc2)NC(=O)CS1)c1ccc(Cl)cc1 (stereo not given) | > 100 | > 100 | > 100 |  | > 100 | > 100 | > 100 | 87.6 | > 100 | > 100 |
| O=C(c1cc2ccccc2[nH]1)N1C2CCC1CN(CCOC(c1ccc(F)cc1)c1ccc(F)cc1)CC2 (stereo not given) | > 100 | > 100 |  | 8.41 | > 100 | > 100 | > 100 | > 100 | > 100 | > 100 |
| Oc1ccc2c(c1)CCc1c-2n(CCN2CCOCC2)c2ccc(O)cc12 | > 100 | > 100 | 34.9 | > 100 | > 100 | 53 | > 100 |  | > 100 | > 100 |
| CCOC(=O)CCC(NC(=O)Cc1ccc(Nc2nc3ccccc3nc2-c2cccs2)cc1)C(=O)OCC (stereo not given) | > 100 | > 100 | > 100 | 52.5 | > 100 | > 100 | > 100 |  |  | > 100 |
| Clc1c(Cl)c(Cl)c2c(nnn2C2CCCO2)c1Cl (stereo not given) | > 100 | > 100 |  | > 100 | > 100 |  | > 100 |  |  | 77.9 |
| CCOc1ccc(N/C(=C(/C(Cl)=C(/Cl)Nc2ccccc2)[N+](=O)[O-])n2nnc3ccccc32)cc1 | > 100 | 87.5 | 54.5 |  | 58.1 | > 100 | 58.4 | 40.6 |  |  |
| NC(=O)C(=O)c1ncn(Cc2ccccc2)c1N | > 100 | > 100 |  | > 100 | > 100 | > 100 | > 100 |  | > 100 | > 100 |
| CN(C)CCNc1nc2ccccc2c2c1CCCC2 | > 100 | 36.1 | 27.5 | 22.9 | 33.6 | 65.3 | > 100 | 58.3 | 34.7 |  |
| COc1ccc(NC(=S)N/N=C\c2ccc(NC(C)=O)cc2)cc1 | > 100 | > 100 | > 100 |  | > 100 | > 100 | > 100 | > 100 | > 100 | > 100 |
